In PMC4774911, “Biochemical Screening of Five Protein Kinases from Plasmodium falciparum against 14,000 Cell-Active Compounds” (PLoS ONE, 2016) one finds IC50 data, which are given here for 3 molecules.

Values joined by “and” are separate entries in the source; they are usually repeats but may differ in a detail not shown here. Equal entries are not always repeated.

Some targets named below: CAMK2G (Homo sapiens, UniProt Q13555); PTK2B (Homo sapiens, UniProt Q14289); CDC42BPG (Homo sapiens, UniProt Q6DT37); GSK3B (Homo sapiens, UniProt P49841); YES1 (Homo sapiens, UniProt P07947); AAK1 (Homo sapiens, UniProt Q2M2I8); PIM1 (Homo sapiens, UniProt P11309).
Test in all cases: biochemical
Another assay concerns the target T1, MAP3K2 (Homo sapiens, UniProt Q9Y2U5).
T1 sequence (Q9Y2U5 1-619): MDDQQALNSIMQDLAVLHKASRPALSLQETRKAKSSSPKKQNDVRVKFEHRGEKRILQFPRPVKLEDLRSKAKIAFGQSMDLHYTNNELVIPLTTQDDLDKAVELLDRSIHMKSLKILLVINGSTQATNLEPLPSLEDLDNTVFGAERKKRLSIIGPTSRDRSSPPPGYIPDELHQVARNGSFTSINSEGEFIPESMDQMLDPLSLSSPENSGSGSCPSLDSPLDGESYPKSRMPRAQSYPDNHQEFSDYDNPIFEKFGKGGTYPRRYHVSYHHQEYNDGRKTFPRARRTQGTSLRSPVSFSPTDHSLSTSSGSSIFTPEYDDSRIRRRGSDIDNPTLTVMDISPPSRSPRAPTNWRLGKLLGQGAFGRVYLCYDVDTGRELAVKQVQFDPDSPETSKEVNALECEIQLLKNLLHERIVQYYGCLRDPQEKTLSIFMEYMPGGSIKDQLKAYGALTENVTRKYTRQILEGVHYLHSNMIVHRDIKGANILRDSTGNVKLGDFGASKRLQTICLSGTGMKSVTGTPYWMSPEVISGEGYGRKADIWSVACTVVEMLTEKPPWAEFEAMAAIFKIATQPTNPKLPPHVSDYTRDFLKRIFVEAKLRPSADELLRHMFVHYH

The next assay concerns the target T2, PDPK1 (Homo sapiens, UniProt O15530).
T2 sequence (O15530 1-556): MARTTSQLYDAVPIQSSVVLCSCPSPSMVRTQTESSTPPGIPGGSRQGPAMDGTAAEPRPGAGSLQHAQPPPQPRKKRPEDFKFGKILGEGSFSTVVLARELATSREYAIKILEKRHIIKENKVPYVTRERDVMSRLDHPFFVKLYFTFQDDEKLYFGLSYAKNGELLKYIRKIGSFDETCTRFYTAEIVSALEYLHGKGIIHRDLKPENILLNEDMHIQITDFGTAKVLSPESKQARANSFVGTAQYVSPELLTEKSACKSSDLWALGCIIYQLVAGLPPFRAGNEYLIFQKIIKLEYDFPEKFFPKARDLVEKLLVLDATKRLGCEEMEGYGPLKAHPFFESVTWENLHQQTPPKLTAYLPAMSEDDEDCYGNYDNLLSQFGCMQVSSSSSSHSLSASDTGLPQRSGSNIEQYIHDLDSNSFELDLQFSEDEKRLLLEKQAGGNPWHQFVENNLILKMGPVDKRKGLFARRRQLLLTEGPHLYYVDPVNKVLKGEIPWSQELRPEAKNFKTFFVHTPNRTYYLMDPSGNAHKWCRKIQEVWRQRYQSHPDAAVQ

A further assay addresses T3, ITK (Homo sapiens, UniProt Q08881).
T3 sequence (Q08881 1-620): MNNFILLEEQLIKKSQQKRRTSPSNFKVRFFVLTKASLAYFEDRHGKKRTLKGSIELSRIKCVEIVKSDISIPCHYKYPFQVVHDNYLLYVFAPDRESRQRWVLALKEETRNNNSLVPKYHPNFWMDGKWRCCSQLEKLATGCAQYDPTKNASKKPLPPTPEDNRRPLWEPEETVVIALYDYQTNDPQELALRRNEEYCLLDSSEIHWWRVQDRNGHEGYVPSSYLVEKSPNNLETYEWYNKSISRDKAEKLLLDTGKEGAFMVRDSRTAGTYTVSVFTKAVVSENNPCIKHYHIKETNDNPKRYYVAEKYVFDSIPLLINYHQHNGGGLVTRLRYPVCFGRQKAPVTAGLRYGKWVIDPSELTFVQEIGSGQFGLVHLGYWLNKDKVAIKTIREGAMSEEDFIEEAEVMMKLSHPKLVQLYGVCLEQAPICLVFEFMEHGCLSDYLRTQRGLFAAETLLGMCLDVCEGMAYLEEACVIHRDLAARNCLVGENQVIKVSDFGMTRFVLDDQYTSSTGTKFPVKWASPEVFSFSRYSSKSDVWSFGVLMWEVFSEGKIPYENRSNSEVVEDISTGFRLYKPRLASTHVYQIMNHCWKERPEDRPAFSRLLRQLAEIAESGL

A further assay addresses T4, MAP2K4 (Homo sapiens, UniProt P45985).
T4 sequence (P45985 1-399): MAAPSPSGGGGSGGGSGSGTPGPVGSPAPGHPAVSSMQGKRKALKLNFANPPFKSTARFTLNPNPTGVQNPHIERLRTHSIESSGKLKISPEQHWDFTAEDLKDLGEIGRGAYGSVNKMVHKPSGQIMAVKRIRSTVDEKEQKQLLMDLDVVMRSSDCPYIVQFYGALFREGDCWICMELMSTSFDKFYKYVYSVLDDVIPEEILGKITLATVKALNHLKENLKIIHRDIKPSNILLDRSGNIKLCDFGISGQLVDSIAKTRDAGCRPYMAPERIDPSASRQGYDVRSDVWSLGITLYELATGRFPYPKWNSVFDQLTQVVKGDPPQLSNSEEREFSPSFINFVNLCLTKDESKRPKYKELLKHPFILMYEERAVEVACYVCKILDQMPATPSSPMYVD

CDC42BPG, sequence (Q6DT37 whole entry): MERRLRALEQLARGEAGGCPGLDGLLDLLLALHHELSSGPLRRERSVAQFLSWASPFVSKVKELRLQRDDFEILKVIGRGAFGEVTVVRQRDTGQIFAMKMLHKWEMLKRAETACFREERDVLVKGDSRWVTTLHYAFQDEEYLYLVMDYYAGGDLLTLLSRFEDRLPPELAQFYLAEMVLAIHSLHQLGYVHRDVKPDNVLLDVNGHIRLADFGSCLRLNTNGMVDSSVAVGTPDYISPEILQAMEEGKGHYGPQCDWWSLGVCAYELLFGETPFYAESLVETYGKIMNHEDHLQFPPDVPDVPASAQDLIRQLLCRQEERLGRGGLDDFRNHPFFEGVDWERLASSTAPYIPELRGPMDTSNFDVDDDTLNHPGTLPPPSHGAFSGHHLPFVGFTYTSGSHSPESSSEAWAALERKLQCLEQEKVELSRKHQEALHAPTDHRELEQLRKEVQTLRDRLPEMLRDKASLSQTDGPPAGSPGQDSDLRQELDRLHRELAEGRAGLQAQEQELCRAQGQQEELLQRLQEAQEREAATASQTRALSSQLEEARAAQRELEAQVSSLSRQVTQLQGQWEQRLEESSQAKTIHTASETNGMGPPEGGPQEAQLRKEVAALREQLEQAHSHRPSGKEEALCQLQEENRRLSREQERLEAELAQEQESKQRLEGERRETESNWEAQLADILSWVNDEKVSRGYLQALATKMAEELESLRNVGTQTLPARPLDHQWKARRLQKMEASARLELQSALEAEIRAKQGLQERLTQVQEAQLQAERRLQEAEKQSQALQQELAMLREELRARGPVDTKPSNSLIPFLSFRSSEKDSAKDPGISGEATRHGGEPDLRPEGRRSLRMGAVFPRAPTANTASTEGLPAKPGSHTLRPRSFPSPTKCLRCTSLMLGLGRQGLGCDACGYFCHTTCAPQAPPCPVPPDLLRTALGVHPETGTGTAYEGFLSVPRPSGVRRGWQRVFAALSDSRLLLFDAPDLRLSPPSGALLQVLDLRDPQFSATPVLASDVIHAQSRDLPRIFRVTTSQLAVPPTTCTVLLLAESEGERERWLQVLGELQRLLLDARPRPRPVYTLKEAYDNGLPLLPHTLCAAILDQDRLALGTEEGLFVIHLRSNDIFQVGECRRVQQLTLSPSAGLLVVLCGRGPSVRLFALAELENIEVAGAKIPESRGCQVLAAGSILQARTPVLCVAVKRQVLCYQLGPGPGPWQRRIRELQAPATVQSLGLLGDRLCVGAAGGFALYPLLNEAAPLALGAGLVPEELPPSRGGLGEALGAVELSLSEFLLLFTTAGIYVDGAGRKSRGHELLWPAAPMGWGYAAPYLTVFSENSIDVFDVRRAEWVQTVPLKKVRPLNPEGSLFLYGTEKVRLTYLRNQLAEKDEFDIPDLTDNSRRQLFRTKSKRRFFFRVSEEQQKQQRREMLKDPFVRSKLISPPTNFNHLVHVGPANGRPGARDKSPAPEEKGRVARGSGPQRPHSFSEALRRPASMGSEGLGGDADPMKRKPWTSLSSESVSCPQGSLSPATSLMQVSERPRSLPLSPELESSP
PIM1, sequence (P11309 whole entry): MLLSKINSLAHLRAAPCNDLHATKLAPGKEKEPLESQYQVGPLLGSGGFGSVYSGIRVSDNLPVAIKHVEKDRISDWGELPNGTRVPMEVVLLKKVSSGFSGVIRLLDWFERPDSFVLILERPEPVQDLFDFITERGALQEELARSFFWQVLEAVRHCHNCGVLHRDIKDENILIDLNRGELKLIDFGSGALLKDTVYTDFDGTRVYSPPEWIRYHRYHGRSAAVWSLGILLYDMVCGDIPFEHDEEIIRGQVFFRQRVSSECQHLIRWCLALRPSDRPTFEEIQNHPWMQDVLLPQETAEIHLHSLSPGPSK
AAK1, sequence (Q2M2I8 whole entry): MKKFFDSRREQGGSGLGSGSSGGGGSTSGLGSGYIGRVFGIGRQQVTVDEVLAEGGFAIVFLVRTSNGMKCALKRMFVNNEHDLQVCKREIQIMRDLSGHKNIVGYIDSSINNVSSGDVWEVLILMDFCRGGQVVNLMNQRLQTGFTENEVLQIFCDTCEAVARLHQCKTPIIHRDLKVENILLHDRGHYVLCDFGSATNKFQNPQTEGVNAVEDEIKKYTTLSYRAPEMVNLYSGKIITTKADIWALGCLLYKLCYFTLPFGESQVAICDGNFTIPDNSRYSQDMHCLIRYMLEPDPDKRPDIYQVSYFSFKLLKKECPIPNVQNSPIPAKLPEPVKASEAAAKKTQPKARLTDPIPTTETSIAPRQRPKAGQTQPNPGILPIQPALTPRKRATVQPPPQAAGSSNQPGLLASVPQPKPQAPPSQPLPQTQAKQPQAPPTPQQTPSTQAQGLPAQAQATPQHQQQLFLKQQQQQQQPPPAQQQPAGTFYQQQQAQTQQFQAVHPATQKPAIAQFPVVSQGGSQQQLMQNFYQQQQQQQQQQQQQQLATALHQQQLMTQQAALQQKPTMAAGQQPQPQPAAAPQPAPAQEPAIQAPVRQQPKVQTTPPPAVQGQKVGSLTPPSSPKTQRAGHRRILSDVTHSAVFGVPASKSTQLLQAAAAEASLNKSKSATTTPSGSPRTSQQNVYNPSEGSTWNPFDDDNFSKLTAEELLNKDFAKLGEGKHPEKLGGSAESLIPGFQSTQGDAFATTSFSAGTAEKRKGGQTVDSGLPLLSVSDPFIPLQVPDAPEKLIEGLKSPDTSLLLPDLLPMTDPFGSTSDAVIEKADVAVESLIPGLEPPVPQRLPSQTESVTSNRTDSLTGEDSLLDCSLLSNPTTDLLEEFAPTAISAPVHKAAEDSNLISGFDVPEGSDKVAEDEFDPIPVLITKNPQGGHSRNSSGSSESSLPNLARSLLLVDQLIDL
GSK3B, sequence (P49841 whole entry): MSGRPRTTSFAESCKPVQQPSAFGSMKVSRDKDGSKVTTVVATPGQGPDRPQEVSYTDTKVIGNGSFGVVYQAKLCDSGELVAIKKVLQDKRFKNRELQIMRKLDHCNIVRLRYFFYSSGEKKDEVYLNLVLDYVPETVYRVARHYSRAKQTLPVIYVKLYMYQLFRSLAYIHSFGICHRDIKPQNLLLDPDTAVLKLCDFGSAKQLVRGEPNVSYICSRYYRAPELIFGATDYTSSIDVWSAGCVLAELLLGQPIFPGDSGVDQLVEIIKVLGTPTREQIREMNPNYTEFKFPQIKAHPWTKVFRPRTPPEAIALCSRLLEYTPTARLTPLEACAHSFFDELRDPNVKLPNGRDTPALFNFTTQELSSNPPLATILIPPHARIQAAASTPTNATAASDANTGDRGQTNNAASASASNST
CAMK2G, sequence (Q13555 whole entry): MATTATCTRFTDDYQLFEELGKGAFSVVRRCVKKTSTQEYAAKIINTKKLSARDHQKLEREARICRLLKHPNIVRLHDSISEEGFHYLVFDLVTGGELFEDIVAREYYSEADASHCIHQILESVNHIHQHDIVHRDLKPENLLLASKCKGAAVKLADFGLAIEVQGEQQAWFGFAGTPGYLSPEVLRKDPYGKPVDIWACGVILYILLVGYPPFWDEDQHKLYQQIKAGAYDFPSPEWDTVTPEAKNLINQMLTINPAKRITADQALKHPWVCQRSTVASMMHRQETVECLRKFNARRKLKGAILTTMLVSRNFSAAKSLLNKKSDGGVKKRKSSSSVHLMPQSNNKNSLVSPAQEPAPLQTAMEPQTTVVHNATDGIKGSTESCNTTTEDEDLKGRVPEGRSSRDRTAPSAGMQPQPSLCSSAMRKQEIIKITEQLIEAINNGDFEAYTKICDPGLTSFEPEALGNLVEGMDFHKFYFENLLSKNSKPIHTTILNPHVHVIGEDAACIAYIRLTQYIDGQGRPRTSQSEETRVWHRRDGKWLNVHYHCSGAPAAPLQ
PTK2B, sequence (Q14289 whole entry): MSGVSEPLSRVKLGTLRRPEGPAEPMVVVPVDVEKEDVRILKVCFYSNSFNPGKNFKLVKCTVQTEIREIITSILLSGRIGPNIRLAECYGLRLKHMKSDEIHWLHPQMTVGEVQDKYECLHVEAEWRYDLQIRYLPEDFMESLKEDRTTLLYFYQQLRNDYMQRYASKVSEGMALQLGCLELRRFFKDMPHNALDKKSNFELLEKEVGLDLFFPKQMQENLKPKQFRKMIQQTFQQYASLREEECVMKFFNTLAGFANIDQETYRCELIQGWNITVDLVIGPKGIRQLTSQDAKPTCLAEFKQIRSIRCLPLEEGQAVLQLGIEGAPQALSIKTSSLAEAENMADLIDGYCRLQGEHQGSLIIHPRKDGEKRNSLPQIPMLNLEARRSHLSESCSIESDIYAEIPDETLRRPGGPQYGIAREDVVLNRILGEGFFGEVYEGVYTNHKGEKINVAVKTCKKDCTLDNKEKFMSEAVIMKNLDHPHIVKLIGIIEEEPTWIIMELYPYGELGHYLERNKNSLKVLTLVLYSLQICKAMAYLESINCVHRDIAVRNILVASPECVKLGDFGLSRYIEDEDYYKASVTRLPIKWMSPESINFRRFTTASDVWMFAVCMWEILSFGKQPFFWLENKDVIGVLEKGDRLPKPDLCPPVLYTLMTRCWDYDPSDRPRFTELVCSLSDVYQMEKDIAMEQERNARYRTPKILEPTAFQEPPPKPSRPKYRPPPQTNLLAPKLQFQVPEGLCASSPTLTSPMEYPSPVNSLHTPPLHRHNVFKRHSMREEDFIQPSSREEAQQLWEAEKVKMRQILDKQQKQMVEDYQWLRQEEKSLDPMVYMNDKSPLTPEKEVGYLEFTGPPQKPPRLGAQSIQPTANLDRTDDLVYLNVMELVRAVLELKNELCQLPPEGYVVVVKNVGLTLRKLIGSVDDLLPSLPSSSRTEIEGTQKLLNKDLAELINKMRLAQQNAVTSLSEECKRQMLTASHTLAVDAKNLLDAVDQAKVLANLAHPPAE

Regarding `CN1CCN(c2ccc(Nc3ncc(C#N)c(Nc4ccccc4C(N)=O)n3)cc2)CC1.Cl` [TCMDC-134116], the IC50 against CAMK2G was 1.5 µM and 1.3 µM; against PTK2B, 0.077 µM and 0.097 µM; against MAP3K2, 0.49 µM; on PDPK1, 0.89 µM and 0.74 µM; at CDC42BPG, 1 µM; against GSK3B it was 2.4 µM and 1.5 µM. Further, the IC50 is 0.12 µM and 0.15 µM against YES1; 0.14 µM at ITK; 0.19 µM against AAK1; greater than 20 µM against MAP2K4; 7.2 µM and 6 µM against PIM1.
`Cl.NCC1(c2nc(-c3ccc(Cl)c(O)c3)c(-c3ccncc3)[nH]2)CCCCC1` [TCMDC-141154]: the concentration for half-maximal inhibition (IC50) at CAMK2G was greater than 20 µM; on PTK2B, greater than 20 µM; at MAP3K2, 1.2 µM; against PDPK1, greater than 20 µM; against CDC42BPG, 8 µM; at GSK3B it was 7.7 µM. In addition, the IC50 against YES1 was 4.4 µM and 7.7 µM; on ITK it was greater than 20 µM; at AAK1, greater than 20 µM; on MAP2K4, greater than 20 µM; on PIM1, greater than 20 µM.
For `CN(C)CC(O)COc1ccc(Nc2ncc([N+](=O)[O-])c(Nc3ccccc3O)n2)cc1.O=C(O)C(F)(F)F` (stereo not drawn) [TCMDC-141399], the IC50 is greater than 20 µM against CAMK2G; 0.35 µM and 0.48 µM on PTK2B; greater than 20 µM against MAP3K2; greater than 20 µM on PDPK1; 9.6 µM on CDC42BPG; 8.4 µM and 11 µM at GSK3B. In addition, the IC50 against YES1 was greater than 20 µM; against ITK it was 1.7 µM; on AAK1, greater than 20 µM; on MAP2K4, greater than 20 µM; against PIM1, greater than 20 µM.
